Experimental findings from patent US20240262806A1, “INHIBITORS OF NLRP3” (PTC THERAPEUTICS, INC., priority 2021, published 2024) are described below.

pIC50: −log10 of the molar value. Where only a bound is given, the exact number is not on record here.

For the test, the system named is NLRP3 inflammasome. The test is described as follows: IL-1β Secretion Assay (NLRP3-dependent IL-1β secretion in PMA-differentiated THP-1 cells, nigericin activation, HTRF). The conditions noted are these: Homo sapiens, THP-1, THP-1 cells, 100 ng/mL PMA 24 h, compound 20 h, 2.5 μM Nigericin 3 h; read-out: IC50 IL-1β Inhibition. The format is cell-based. How it is done:
Cells were washed 1× with 100 ul PBS and replaced with fresh RPMI+5% FBS. Compounds were serial diluted in DMSO with 3 fold dilution for a total of 7 concentrations.
Compounds, once produced and prepared according to the present invention, can be assessed in variety of assays to characterize their activities. […] IC50 values of IL1β inhibition were calculated from the plot of percentage of inhibition versus the inhibitor concentration by a logistics fit. TABLE I depict examples of compounds according to generic Formulae I. Data which is <1 nM is listed as *****; data 1-10 nM is listed as ****; data 10-100 nM is listed as ***, data 100-300 nM is listed as **, data >300 nM is listed as *.
On to `CN1CCC[C@@H](Nc2nnc(-c3ccc(C(F)(F)F)cc3O)c3sccc23)C1` [Compound I-4], for which the negative logarithm of the IC50 (pIC50) is 8.00 to 9.00.

For `Oc1cc(C(F)(F)F)ccc1-c1nnc(NC2CCNC2)c2ccccc12` (centres unmarked) [Compound I-6], the pIC50 was 7.00 to 8.00.

Consider `CN1CCC[C@@H](Nc2nnc(-c3ccc(C(F)(F)F)cc3O)c3ccncc23)C1` [Compound I-7], for which the pIC50 was more than 9.00.

`Cc1cccc2c(N[C@@H]3CCCN(C)C3)nnc(-c3ccc(C(F)(F)F)cc3O)c12` [Compound I-8]: the negative-log IC50 (pIC50) was 8.00 to 9.00.

As to `CN1CCC[C@@H](Nc2nnc(-c3ccc(C(F)(F)F)cc3O)c3cc(F)ccc23)C1` [Compound I-9], the pIC50 was 8.00 to 9.00.

Take `CN1CCC[C@@H](Nc2nnc(-c3ccc(-n4nccn4)cc3O)c3ccccc23)C1` [Compound I-10, (R)-2-(4-((1-methylpiperidin-3-yl)amino)phthalazin-1-yl)-5-(2H-1,2,3-triazol-2-yl)phenol]: the pIC50 is 8.00 to 9.00.

As for `Oc1cc(C(F)(F)F)ccc1-c1nnc(N[C@@H]2CCCNC2)c2c1CCCC2` [Compound I-11, (R)-2-(4-(Piperidin-3-ylamino)-5,6,7,8-tetrahydrophthalazin-1-yl)-5-(trifluoromethyl)phenol], the negative logarithm of the IC50 (pIC50) is 7.00 to 8.00.

For `CN1CCC[C@@H](Nc2nnc(-c3ccc(Cl)cc3O)c3ccccc23)C1` [Compound I-13], the negative-log IC50 (pIC50) is more than 9.00.

With `CN1CCC[C@@H](Nc2nnc(-c3c(O)cccc3F)c3ccccc23)C1` [Compound I-14], the negative-log IC50 (pIC50) is 8.00 to 9.00.

Take `CN1CCC[C@@H](Nc2nnc(-c3ccc(O)cc3O)c3ccccc23)C1` [Compound I-15, (R)-4-(4-((1-methylpiperidin-3-yl)amino)phthalazin-1-yl)benzene-1,3-diol]: the negative logarithm of the IC50 (pIC50) is 6.52 to 7.00.

Turning to `CN1CCC[C@@H](Nc2nnc(-c3ccc(F)cc3O)c3ccccc23)C1` [Compound I-16], the pIC50 was 8.00 to 9.00.

For `Cc1ccc(O)c(-c2nnc(N[C@@H]3CCCN(C)C3)c3ccccc23)c1` [Compound I-17], the pIC50 was 6.52 to 7.00.

Regarding `Cc1cc(O)c(-c2nnc(N[C@@H]3CCCN(C)C3)c3ccccc23)cc1F` [Compound I-18], the pIC50 was 8.00 to 9.00.

As to `CCN1CCC[C@@H](Nc2nnc(-c3ccc(C(F)(F)F)cc3O)c3c2CCCC3)C1` [Compound I-19], the pIC50 is more than 9.00.

For `Oc1cc(C(F)(F)F)ccc1-c1nnc(N[C@@H]2CCCNC2)c2ccccc12` [Compound I-20, 2-[4-[[(3R)-3-Piperidyl]amino]phthalazin-1-yl]-5-(trifluoromethyl)phenol], the pIC50 was more than 9.00.

Consider `Oc1cc(C(F)(F)F)ccc1-c1nnc(O[C@@H]2CCCNC2)c2ccccc12` [Compound I-21], for which the pIC50 is 7.00 to 8.00.

With `CN1CCC[C@H](Oc2nnc(-c3ccc(C(F)(F)F)cc3O)c3ccccc23)C1` [Compound I-22], the pIC50 was 6.52 to 7.00.

Turning to `CC1CCCc2c(N[C@@H]3CCCNC3)nnc(-c3ccc(C(F)(F)F)cc3O)c21` (some centres unmarked) [Compound I-23], the pIC50 was 7.00 to 8.00.

Consider `CN1CCC[C@@H](Nc2nnc(-c3ccc(C#N)cc3O)c3ccccc23)C1` [Compound I-24], for which the negative logarithm of the IC50 (pIC50) is more than 9.00.

As to `Cc1ccc(-c2nnc(N[C@@H]3CCCN(C)C3)c3ccccc23)c(O)c1` [Compound I-25], the negative-log IC50 (pIC50) is more than 9.00.

As to `CN1CC[C@@H](Nc2nnc(-c3ccc(C(F)(F)F)cc3O)c3c2CCCC3)C1` [Compound I-26], the negative-log IC50 (pIC50) was 7.00 to 8.00.

As for `Cc1cccc(-c2nnc(N[C@@H]3CCCN(C)C3)c3ccccc23)c1O` [Compound I-27], the negative logarithm of the IC50 (pIC50) is more than 9.00.

As to `CN1CCC[C@@H](Nc2nnc(-c3cccc(F)c3O)c3ccccc23)C1` [Compound I-28], the pIC50 was 7.00 to 8.00.

With `CN1CCC[C@@H](Oc2nnc(-c3ccc(C(F)(F)F)cc3O)c3ccccc23)C1` [Compound I-29], the pIC50 was 8.00 to 9.00.

Consider `Oc1cc(C(F)(F)F)ccc1-c1nnc(CC2CCCNC2)c2ccccc12` (centres unmarked) [Compound I-30], for which the pIC50 is 7.00 to 8.00.

As to `Oc1cc(C(F)(F)F)ccc1-c1nnc(N[C@@H]2CCCNC2)c2c1CCCCC2` [Compound I-31, (R)-2-(4-(Piperidin-3-ylamino)-6,7,8,9-tetrahydro-5H-cyclohepta[d]pyridazin-1-yl)-5-(trifluoromethyl)phenol], the pIC50 was more than 9.00.

As for `Cc1nc(-c2ccc(-c3nnc(N[C@@H]4CCCNC4)c4ccccc34)c(O)c2)ns1` [Compound I-32], the pIC50 was 7.00 to 8.00.

On to `CN1CCC[C@@H](Nc2nnc(-c3ccccc3O)c3ccccc23)C1` [Compound I-33], for which the negative-log IC50 (pIC50) was 8.00 to 9.00.

In the case of `CC(C)N1CCC[C@@H](Nc2nnc(-c3ccc(C(F)(F)F)cc3O)c3c2CCCC3)C1` [Compound I-34], the negative logarithm of the IC50 (pIC50) is more than 9.00.

Regarding `Oc1cc(C(F)(F)F)ccc1-c1nnc(N[C@@H]2CCCNC2)c2cnccc12` [Compound I-35], the negative logarithm of the IC50 (pIC50) is more than 9.00.

Turning to `CN1CCC[C@@H](Nc2nnc(-c3ccc(C(F)(F)F)cc3O)c3c2CCCCC3)C1` [Compound I-36, (R)-2-(4-((1-Methylpiperidin-3-yl)amino)-6,7,8,9-tetrahydro-5H-cyclohepta[d]pyridazin-1-yl)-5-(trifluoromethyl)phenol], the pIC50 is more than 9.00.

On to `CN1CCC[C@@H](Nc2nnc(-c3ccc(-n4ccnn4)cc3O)c3ccccc23)C1` [Compound I-37], for which the pIC50 was 7.00 to 8.00.

For `Cc1nc(-c2ccc(-c3nnc(N[C@@H]4CCCN(C)C4)c4ccccc34)c(O)c2)ns1` [Compound I-38], the negative-log IC50 (pIC50) is more than 9.00.

In the case of `CN1CCC[C@@H](Nc2nnc(-c3ccc(-c4ccccc4)cc3O)c3ccccc23)C1` [Compound I-39], the pIC50 was 8.00 to 9.00.

Consider `CN1CCC[C@@H](Nc2nnc(-c3cc(-c4ccccc4)ccc3O)c3ccccc23)C1` [Compound I-40], for which the pIC50 was 6.52 to 7.00.

With `Cc1cc(O)c(-c2nnc(N[C@@H]3CCCN(C)C3)c3ccccc23)cc1C` [Compound I-41], the pIC50 was 8.00 to 9.00.

As for `Cc1ccc(-c2nnc(N[C@@H]3CCCN(C)C3)c3ccccc23)c(O)c1C` [Compound I-42], the negative-log IC50 (pIC50) is more than 9.00.

In the case of `CCN1CCC[C@@H](Nc2nnc(-c3ccc(C(F)(F)F)cc3O)c3ccncc23)C1` [Compound I-43], the negative-log IC50 (pIC50) is more than 9.00.

For `CN1CCCC(Cc2nnc(-c3ccc(C(F)(F)F)cc3O)c3ccccc23)C1` (centres unmarked) [Compound I-44], the pIC50 was 8.00 to 9.00.

For the molecule `CC1(C)CCc2c(N[C@@H]3CCCNC3)nnc(-c3ccc(C(F)(F)F)cc3O)c21` [Compound I-45], the pIC50 is 8.00 to 9.00.

Take `CN1CCC[C@@H](Nc2nnc(-c3ccc(C(F)(F)F)cc3O)c3c2CCC3(C)C)C1` [Compound I-46]: the negative logarithm of the IC50 (pIC50) is 7.00 to 8.00.

As for `CN1CCC[C@@H](N(C)c2nnc(-c3ccc(C(F)(F)F)cc3O)c3c2CCCC3)C1` [Compound I-47, 2-[4-[Methyl-[(3R)-1-methyl-3-piperidyl]amino]-5,6,7,8-tetrahydrophthalazin-1-yl]-5-(trifluoromethyl)phenol], the pIC50 is more than 9.00.

In the case of `OCCN1CCC[C@@H](Nc2nnc(-c3ccc(C(F)(F)F)cc3O)c3ccccc23)C1` [Compound I-48, 2-[4-[[(3R)-1-(2-Hydroxyethyl)-3-piperidyl]amino]phthalazin-1-yl]-5-(trifluoromethyl)phenol], the pIC50 was more than 9.00.

In the case of `CN1CCC[C@@H](Nc2nnc(-c3ccc(C4CC4)cc3O)c3ccccc23)C1` [Compound I-49], the negative-log IC50 (pIC50) was more than 9.00.

On to `Cc1cccc(O)c1-c1nnc(N[C@@H]2CCCN(C)C2)c2ccccc12` [Compound I-50], for which the pIC50 is more than 9.00.

As to `Cc1ccc(-c2nnc(N[C@@H]3CCCN(C)C3)c3ccccc23)c(O)c1F` [Compound I-51], the negative-log IC50 (pIC50) is more than 9.00.

In the case of `CN1CCC[C@@H](Nc2nnc(-c3ccc(C4=CCCOC4)cc3O)c3ccccc23)C1` [Compound I-52], the negative-log IC50 (pIC50) was 8.00 to 9.00.

With `Oc1cc(C(F)(F)F)ccc1-c1nnc(N[C@H]2CNC[C@@H](O)C2)c2ccccc12` [Compound I-53], the pIC50 was 8.00 to 9.00.

For `CN1CCC[C@@H](Nc2nnc(-c3ccc(C(F)(F)F)cc3O)c3cnccc23)C1` [Compound I-54], the pIC50 is more than 9.00.

On to `OCCN1CCC[C@@H](Nc2nnc(-c3ccc(C(F)(F)F)cc3O)c3ccncc23)C1` [Compound I-55], for which the negative logarithm of the IC50 (pIC50) is more than 9.00.

For `CN1CCC[C@@H](Nc2nnc(-c3ccc(C4=CCOCC4)cc3O)c3ccccc23)C1` [Compound I-56], the pIC50 was 7.00 to 8.00.

Regarding `CN1CCC[C@@H](Nc2nnc(-c3ccc(C4=CCOC4)cc3O)c3ccccc23)C1` [Compound I-57], the pIC50 is 8.00 to 9.00.

On to `CN1CC=C(c2ccc(-c3nnc(N[C@@H]4CCCN(C)C4)c4ccccc34)c(O)c2)C1` [Compound I-58], for which the pIC50 is 8.00 to 9.00.

`CN1CCC[C@@H](Nc2nnc(-c3ccc(Cl)cc3O)c3cnccc23)C1` [Compound I-59]: the negative-log IC50 (pIC50) is more than 9.00.

As for `CN1CCC[C@@H](Nc2nnc(-c3ccc(Cl)cc3O)c3ccncc23)C1` [Compound I-60], the pIC50 was more than 9.00.

Turning to `CN1CCC[C@@H](Nc2nnc(-c3ccc(C4CCOC4)cc3O)c3ccccc23)C1` (some centres unmarked) [Compound I-61], the negative-log IC50 (pIC50) was 8.00 to 9.00.

`OCCN1CCC[C@@H](Nc2nnc(-c3ccc(C(F)(F)F)cc3O)c3c2CCCC3)C1` [Compound I-62, 2-[4-[[(3R)-1-(2-hydroxyethyl)-3-piperidyl]amino]-5,6,7,8-tetrahydrophthalazin-1-yl]-5-(trifluoromethyl)phenol]: the negative logarithm of the IC50 (pIC50) is more than 9.00.

In the case of `CN1C[C@@H](O)C[C@@H](Nc2nnc(-c3ccc(C(F)(F)F)cc3O)c3ccccc23)C1` [Compound I-63], the pIC50 is 8.00 to 9.00.

As to `CC(=O)N1CCCC(Nc2nnc(-c3ccc(C(F)(F)F)cc3O)c3ccccc23)C1` (centres unmarked) [Compound I-64], the negative logarithm of the IC50 (pIC50) was 7.00 to 8.00.
